This is an account of results in patent US20240342292A1, “Compounds for the Degradation of EGFR Kinase” (BeiGene Switzerland GmbH, priority 2021, published 2024).

The target of one assay is T1, L858R/T790M/C797S EGFR (Homo sapiens, UniProt P00533, C797S/L858R/T790M).
T1 construct: expressed in transfected cells; host or cells: H1975 clone #25 (lentiviral over-expression, endogenous EGFR knocked out by sgRNA)
Nature of the assay: EGFR degradation HTRF assay in H1975-clone #25 (LTC) cells. In kind it is cell-based. To be noted: 16h treatment; for DC50: H1975 # 25-LTC (L858R/T790M/C797S), HTRF; for Dmax: NCI-H1975, H1975 # 25-LTC (L858R/T790M/C797S), maximum percentage of degradation. In outline:
(§1)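 H1975 clones with endogenous EGFR knocked out and lentivirally expressed mutant EGFR treated 16 h at 37 °C with compounds, 8 doses from 10 uM, 5-fold dilutions, 0.2% DMSO. Lysates read by HTRF (665/620 nm) overnight; DC50 from four-parameter fit.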

For a further assay, the system named is Del19/T790M/C797S EGFR. The assay can be described thus: EGFR degradation HTRF assay in H1975-clone #28 (DTC) cells. To be noted: H1975 # 28 DTC (Del19/T790M/C797S), 16h treatment; for DC50: HTRF; for Dmax (%): maximum percentage of degradation. In kind it is cell-based. In outline:
as §1

SMILES strings stand for the structures.

T1 sequence (P00533 25-1210 T790M/C797S/L858R): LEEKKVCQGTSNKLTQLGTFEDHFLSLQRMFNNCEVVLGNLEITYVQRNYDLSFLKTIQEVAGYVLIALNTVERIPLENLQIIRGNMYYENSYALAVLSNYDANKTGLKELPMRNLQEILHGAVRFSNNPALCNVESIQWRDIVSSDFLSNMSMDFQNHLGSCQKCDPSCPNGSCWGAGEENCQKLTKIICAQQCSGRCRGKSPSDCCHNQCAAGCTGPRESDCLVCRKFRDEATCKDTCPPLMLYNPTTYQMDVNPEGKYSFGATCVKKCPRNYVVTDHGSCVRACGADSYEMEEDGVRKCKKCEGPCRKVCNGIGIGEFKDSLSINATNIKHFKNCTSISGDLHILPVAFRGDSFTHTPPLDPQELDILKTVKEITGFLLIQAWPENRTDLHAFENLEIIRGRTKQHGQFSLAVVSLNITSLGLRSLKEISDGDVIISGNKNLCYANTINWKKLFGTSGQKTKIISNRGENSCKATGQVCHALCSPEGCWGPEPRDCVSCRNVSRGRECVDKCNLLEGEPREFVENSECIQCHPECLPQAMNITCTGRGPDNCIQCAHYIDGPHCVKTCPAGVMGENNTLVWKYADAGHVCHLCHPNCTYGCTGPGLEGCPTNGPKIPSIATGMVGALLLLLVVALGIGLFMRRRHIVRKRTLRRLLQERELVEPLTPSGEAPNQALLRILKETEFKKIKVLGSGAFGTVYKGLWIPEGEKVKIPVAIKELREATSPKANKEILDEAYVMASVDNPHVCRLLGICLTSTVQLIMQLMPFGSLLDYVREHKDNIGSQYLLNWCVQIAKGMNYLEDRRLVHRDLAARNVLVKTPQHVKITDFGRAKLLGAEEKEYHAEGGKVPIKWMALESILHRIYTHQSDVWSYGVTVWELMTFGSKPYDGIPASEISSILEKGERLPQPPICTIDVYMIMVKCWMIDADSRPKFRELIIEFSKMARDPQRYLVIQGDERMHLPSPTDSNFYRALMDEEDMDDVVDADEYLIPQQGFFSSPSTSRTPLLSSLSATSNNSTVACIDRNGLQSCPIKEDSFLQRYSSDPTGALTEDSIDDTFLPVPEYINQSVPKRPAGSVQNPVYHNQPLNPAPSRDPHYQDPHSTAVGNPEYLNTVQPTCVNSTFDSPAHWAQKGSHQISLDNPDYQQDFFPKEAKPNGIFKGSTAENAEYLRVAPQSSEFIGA

A word on the DC50: it is the midpoint of the concentration-degradation curve. As usually defined, the Dmax is the greatest extent of degradation seen. Higher therefore signals a fuller loss of target. With `Cc1cc2cc(n1)-c1cnn(C)c1OCC[C@H]1C[C@@H]1CN1/C(=N/C2=O)Nc2ccc(N3CCN(C4CCN(c5ccc(C6CCC(=O)NC6=O)nc5)CC4)CC3)cc21` (stereo partly drawn) [Example 469, 3-(5-(4-(4-((7'S,7^2R,E)-1^1,2^6-dimethyl-3-oxo-5^2,5^3-dihydro-1^1H,5^1H-10-oxa-4-aza-5(2,1)-benzo[d]imidazola-2(2,4)-pyridina-1(4,5)-pyrazola-7(1,2)-cyclopropanacyclodecaphane-5^6-yl)piperazin-1-yl)piperidin-1-yl)pyridin-2-yl)piperidine-2,6-dione], on L858R/T790M/C797S EGFR, the DC50 stood at 0.794 nM and the Dmax was determined as 82.7%. Moreover, in the assay on Del19/T790M/C797S EGFR, the DC50 came to 0.594 nM and the “Dmax (%)” value was 76.63%.

On L858R/T790M/C797S EGFR, `Cc1cc2cc(n1)-c1cnn(C)c1OCCC[C@@H](C)CN1/C(=N/C2=O)Nc2ccc(C(=O)N3CCC(N(C)CCc4cc(F)c([C@H]5CCC(=O)NC5=O)c(F)c4)CC3)cc21` [Example 299, (R)-3-(2,6-difluoro-4-(2-(methyl(1-((R,E)-1^1,2^6,7-trimethyl-3-oxo-5^2,5^3-dihydro-1^1H,5^1H-11-oxa-4-aza-5(2,1)-benzo[d]imidazola-2(2,4)-pyridina-1(4,5)-pyrazolacycloundecaphane-5^6-carbonyl)piperidin-4-yl)amino)ethyl)phenyl)piperidine-2,6-dione] yielded a DC50 of 0.468 nM and a Dmax of 86.9%. Moreover, in the assay on Del19/T790M/C797S EGFR, half-maximal degradation (DC50) was put at 0.611 nM and the “Dmax (%)” value was determined as 66.17%.

`Cc1cc2cc(n1)-c1cnn(C)c1OCCC[C@@H](C)CN1/C(=N/C2=O)Nc2ccc(C(=O)N(C)C3CCN(C4CCN(c5cc(F)c([C@H]6CCC(=O)NC6=O)c(F)c5)CC4)CC3)cc21` [Example 289, (R,E)-N-(1′-(4-((R)-2,6-dioxopiperidin-3-yl)-3,5-difluorophenyl)-[1,4′-bipiperidin]-4-yl)-N,1^1,2^6,7-tetramethyl-3-oxo-5^2,5^3-dihydro-1^1H,5^1H-11-oxa-4-aza-5(2,1)-benzo[d]imidazola-2(2,4)-pyridina-1(4,5)-pyrazolacycloundecaphane-5^6-carboxamide]: on L858R/T790M/C797S EGFR, the DC50 stood at 0.454 nM and the Dmax amounted to 93.8%. In the assay on Del19/T790M/C797S EGFR, the 50% degradation concentration (DC50) amounted to 0.624 nM and the “Dmax (%)” value is 91.07%.

As to `Cc1cc2cc(n1)-c1cnn(C)c1OCCC[C@@H](C)CN1/C(=N/C2=O)Nc2ccc(C(=O)N(C)[C@@H]3CCN(CCc4cc(F)c([C@H]5CCC(=O)NC5=O)c(F)c4)C[C@@H]3F)cc21` [Example 344, (R,E)-N—((3S,4R)-1-(4-((R)-2,6-dioxopiperidin-3-yl)-3,5-difluorophenethyl)-3-fluoropiperidin-4-yl)-N,1^1,2^6,7-tetramethyl-3-oxo-5^2,5^3-dihydro-1^1H,5^1H-11-oxa-4-aza-5(2,1)-benzo[d]imidazola-2(2,4)-pyridina-1(4,5)-pyrazolacycloundecaphane-5^6-carboxamide], at L858R/T790M/C797S EGFR, it took 0.386 nM to reach half-maximal degradation (DC50) and the Dmax amounted to 92.8%. In the assay with Del19/T790M/C797S EGFR, the DC50 was 0.62 nM and the “Dmax (%)” value is listed as 83.22%.

On L858R/T790M/C797S EGFR, `Cc1cc2cc(n1)-c1cnn(C)c1OCCC[C@@H](C)CN1/C(=N/C2=O)Nc2ccc(CN3CC4CCC3CN4C(=O)[C@@H]3CCN(c4cc(F)c([C@H]5CCC(=O)NC5=O)c(F)c4)C3)cc21` (stereo partly drawn) [Example 164, (3R)-3-(2,6-difluoro-4-((3R)-3-(5-(((R,E)-1^1,2^6,7-trimethyl-3-oxo-5^2,5^3-dihydro-1^1H,5^1H-11-oxa-4-aza-5(2,1)-benzo[d]imidazola-2(2,4)-pyridina-1(4,5)-pyrazolacycloundecaphane-5^6-yl)methyl)-2,5-diazabicyclo[2.2.2]octane-2-carbonyl)pyrrolidin-1-yl)phenyl)piperidine-2,6-dione] displayed a DC50 of 1.46 nM and a Dmax of 83.1%. In addition, in the assay on Del19/T790M/C797S EGFR, the DC50 was found to be 1.95 nM and the “Dmax (%)” value is 73.21%.

Consider `Cc1cc2cc(n1)-c1cnn(C)c1OCC[C@H]1C[C@@H]1CN1/C(=N/C2=O)Nc2ccc(N3CCN(C4CCN(c5cc(F)c([C@H]6CCC(=O)NC6=O)c(F)c5)CC4)CC3)cc21` [Example 391, (R)-3-(4-(4-(4-((7^1S,7^2R,E)-1^1,2^6-dimethyl-3-oxo-5^2,5^3-dihydro-1^1H,5^1H-10-oxa-4-aza-5(2,1)-benzo[d]imidazola-2(2,4)-pyridina-1(4,5)-pyrazola-7(1,2)-cyclopropanacyclodecaphane-5^6-yl)piperazin-1-yl)piperidin-1-yl)-2,6-difluorophenyl)piperidine-2,6-dione], for which, at L858R/T790M/C797S EGFR, it took 1.56 nM to reach half-maximal degradation (DC50) and the Dmax was 87.5%. For the same molecule, in the assay with Del19/T790M/C797S EGFR, it took 1.54 nM to reach half-maximal degradation (DC50) and the “Dmax (%)” value is 85.34%.

At L858R/T790M/C797S EGFR, `Cc1cc2cc(n1)-c1cnn(C)c1OCCC[C@@H](C)CN1/C(=N/C2=O)Nc2ccc(CN3C[C@@H]4C[C@H]3CN4C(=O)[C@@H]3CCN(c4cc(F)c([C@H]5CCC(=O)NC5=O)c(F)c4)C3)cc21` [Example 82, (R)-3-(2,6-difluoro-4-((R)-3-((1S,4S)-5-(((R,E)-1^1,2^6,7-trimethyl-3-oxo-5^2,5^3-dihydro-1^1H,5^1H-11-oxa-4-aza-5(2,1)-benzo[d]imidazola-2(2,4)-pyridina-1(4,5)-pyrazolacycloundecaphane-5^6-yl)methyl)-2,5-diazabicyclo[2.2.1]heptane-2-carbonyl)pyrrolidin-1-yl)phenyl)piperidine-2,6-dione] registered a DC50 of 0.6 nM and a Dmax of 88.6%. In the assay on Del19/T790M/C797S EGFR, the DC50 was determined as 0.7 nM and the “Dmax (%)” value is listed as 78.4%.

Consider `Cc1cc2cc(n1)-c1cnn(C)c1OCCC[C@@H](C)CN1/C(=N/C2=O)Nc2ccc(C(=O)N(C)C3CCN(CC4CN(c5cc(F)c([C@H]6CCC(=O)NC6=O)c(F)c5)C4)CC3)cc21` [Example 286, (R,E)-N-(1-((1-(4-((R)-2,6-dioxopiperidin-3-yl)-3,5-difluorophenyl)azetidin-3-yl)methyl)piperidin-4-yl)-N,1^1,2^6,7-tetramethyl-3-oxo-5^2,5^3-dihydro-1^1H,5^1H-11-oxa-4-aza-5(2,1)-benzo[d]imidazola-2(2,4)-pyridina-1(4,5)-pyrazolacycloundecaphane-5^6-carboxamide], for which, at L858R/T790M/C797S EGFR, the DC50 was 0.45 nM and the Dmax was 91.2%. In the assay with Del19/T790M/C797S EGFR, the DC50 was 0.652 nM and the “Dmax (%)” value was 72.5%.

On L858R/T790M/C797S EGFR, `Cc1cc2cc(n1)-c1cnn(C)c1OCCC[C@@H](C)CN1/C(=N/C2=O)Nc2ccc(C(=O)N3CC[C@H](NCCc4cc(F)c([C@H]5CCC(=O)NC5=O)c(F)c4)C3)cc21` [Example 298, (R)-3-(2,6-difluoro-4-(2-(((S)-1-((R,E)-1^1,2^6,7-trimethyl-3-oxo-5^2,5^3-dihydro-1^1H,5^1H-11-oxa-4-aza-5(2,1)-benzo[d]imidazola-2(2,4)-pyridina-1(4,5)-pyrazolacycloundecaphane-5^6-carbonyl)pyrrolidin-3-yl)amino)ethyl)phenyl)piperidine-2,6-dione] yielded a DC50 of 1.14 nM and a Dmax of 90.1%. Also, in the assay with Del19/T790M/C797S EGFR, the DC50 was 1.2 nM and the “Dmax (%)” value was 66.58%.

As for `Cc1cc2cc(n1)-c1cnn(C)c1OCCC[C@@H](C)CN1/C(=N/C2=O)Nc2ccc(C(=O)N[C@H](C)C3CCN(CCc4cc(F)c([C@H]5CCC(=O)NC5=O)c(F)c4)CC3)cc21` [Example 271, (R,E)-N—((R)-1-(1-(4-((R)-2,6-dioxopiperidin-3-yl)-3,5-difluorophenethyl)piperidin-4-yl)ethyl)-1^1,2^6,7-trimethyl-3-oxo-5^2,5^3-dihydro-1^1H,5^1H-11-oxa-4-aza-5(2,1)-benzo[d]imidazola-2(2,4)-pyridina-1(4,5)-pyrazolacycloundecaphane-5^6-carboxamide], at L858R/T790M/C797S EGFR, it took 0.557 nM to reach half-maximal degradation (DC50) and the Dmax was found to be 81.2%. In the assay with Del19/T790M/C797S EGFR, the DC50 is 1.15 nM and the “Dmax (%)” value turned out to be 70.36%.

As for `Cc1cc2cc(n1)-c1cnn(C)c1OCCC[C@@H](C)CN1/C(=N/C2=O)Nc2ccc(C(=O)N[C@H]3CCN(CCc4cc(F)c([C@H]5CCC(=O)NC5=O)c(F)c4)CC3(F)F)cc21` [Example 337, (R,E)-N—((S)-1-(4-((R)-2,6-dioxopiperidin-3-yl)-3,5-difluorophenethyl)-3,3-difluoropiperidin-4-yl)-1^12^6,7-trimethyl-3-oxo-5^2,5^3-dihydro-1^1H,5^1H-11-oxa-4-aza-5(2,1)-benzo[d]imidazola-2(2,4)-pyridina-1(4,5)-pyrazolacycloundecaphane-5^6-carboxamide], on L858R/T790M/C797S EGFR, it took 0.535 nM to reach half-maximal degradation (DC50) and the Dmax came to 92%. Further, in the assay on Del19/T790M/C797S EGFR, the DC50 amounted to 0.608 nM and the “Dmax (%)” value was found to be 79.69%.

At L858R/T790M/C797S EGFR, `Cc1cc2cc(n1)-c1cnn(C)c1OCCC[C@@H](C)CN1/C(=N/C2=O)Nc2ccc(N3CCN(CCc4cc(F)c([C@H]5CCC(=O)NC5=O)c(F)c4)CC3)cc21` [Example 320, (R)-3-(2,6-difluoro-4-(2-(4-((R,E)-1^1,26,7-trimethyl-3-oxo-5^2,5^3-dihydro-1^1H,5^1H-11-oxa-4-aza-5(2,1)-benzo[d]imidazola-2(2,4)-pyridina-1(4,5)-pyrazolacycloundecaphane-5^6-yl)piperazin-1-yl)ethyl)phenyl)piperidine-2,6-dione] showed a DC50 of 0.591 nM and a Dmax of 86.2%. Moreover, in the assay with Del19/T790M/C797S EGFR, the DC50 came out at 0.674 nM and the “Dmax (%)” value turned out to be 71.04%.
